Literature values, collected in patent publication US20150320677A1, “EFFERVESCENT TABLET FORMULATIONS OF DAPOXETINE AND A PDE5 INHIBITOR” (Sanovel Ilac Sanayi Ve Ticaret Anonim Sirketi, priority 2012, published 2015).

Tests used:
[1] = following oral administration
[2] = in vivo, po

Compound: CN1CC(=O)N2[C@H](c3ccc4c(c3)OCO4)c3[nH]c4ccccc4c3C[C@@H]2C1=O [tadalafil, (6R-trans)-6-(1,3-benzodioxol-5-yl)-2,3,6,7,12,12a-hexahydro-2-methyl-pyrazino[1′,2′:1,6]pyrido[3,4-b]indole-1,4-dione]
- onset of action takes (second sentence of b41) [1]: up to 36 hours

Compound: Dapoxetine
- binding to plasma proteins [2]: almost completely binding to plasma proteins
